Data set [1] is described as follows: Reducing power by the Somogyi-Nelson method, represented by DE. The class given is physicochemical. Particulars: high-purity lyophilized saccharide preparations. As to the method:
These high-purity saccharide preparations were tested for reducing power with the Somogyi-Nelson method and their reducing powers were represented by DE (dextrose equivalent).

A short description of data set [2]: Hygroscopicity when allowed to stand in a room. Particulars: for Hygroscopicity: allowed to stand in a room. The class given is physicochemical. The procedure: Fifty parts by weight of 98% maltopentaose, a product commercialized by Hayashibara Biochemical Laboratories, Inc., Okayama, Japan, was dissolved in 200 parts by weight of water while heating and the resultant solution was heated to 40° C. and adjusted to pH 7.0, admixed with a non-reducing saccharide-forming enzyme prepared by the method in Experiment A-2 in an amount of 5 units/g maltopentaose, reacted for 24 hours and followed by heating at 100° C. for 20 minutes to inactivate the enzyme. The resultant solution contained about 90% maltotetraosyl glucoside, and the remains are maltopentaose. The solution was adjusted to 0.1N by adding sodium hydroxide, and heated at 100° C. for 2 hours to decompose reducing saccharides. The solution was decolored with activated carbon and desalted with ion-exchange resins (H^+ and OH^- form) to obtain 98% maltotetraosyl glucoside fraction. The fractions were pooled and the solution was concentrated to give a concentration of 60%, placed in a crystallizer and admixed with a crystalline maltotetraosyl glucoside in an amount of 2% as a seed crystal, and the resultant mixture is cooled gradually while stirring for crystallization to form a massecuit. The massecuit thus obtained was separated from molasses to obtain 99.9% hydrous crystalline maltotetraosyl glucoside in the yield against starting material of about 50%.
The anhydrous crystalline maltotetraosyl glucoside can be favorably used as hygroscopic agent, dehydrating agent and chemical raw material, and further utilizable in a variety of compositions including foods, beverages, cosmetics, pharmaceuticals and shaped bodies, similar to hydrous crystalline maltotetraosyl glucoside in Example A-1.

The subject of the next data set is mice. Kind of data set: Acute toxicity in mice upon oral administration. The class given is in vivo. Particulars: oral, maximum administrable doses. As to the method: (§1) Hydrous and anhydrous crystalline maltotetraosyl glucosides prepared by the method in Experiment B-1 were tested for acute toxicity in mice upon oral administration.
Data set [3] can be described thus: Acute toxicity in mice upon oral administration. The class given is in vivo. Particulars: mouse, in vivo, oral administration. As to the method:
as §1

The next data set can be described thus: Solubility in water. The class given is physicochemical. Particulars: in 100 ml of 25° C. water; read-out: Solubility (as anhydride). The procedure: (8) Solubility (as anhydride)
Up to about 1 g each hydrous or anhydrous crystal was soluble in 100 ml of 25° C. water.

≈ marks a conversion by molar mass, not a printed value.

On to `OC[C@H]1O[C@H](O[C@H]2O[C@H](CO)[C@@H](O[C@H]3O[C@H](CO)[C@@H](O[C@H]4O[C@H](CO)[C@@H](O)[C@H](O)[C@H]4O)[C@H](O)[C@H]3O)[C@H](O)[C@H]2O)[C@H](O)[C@@H](O)[C@@H]1O` [PII, α-maltosyl trehalose (or α-maltotriosyl glucoside)], for which the “DE (dextrose equivalent), reducing power” value in data set [1] came out at 0.35.
On the same count and under the same terms, for `OC[C@H]1O[C@H](O[C@H]2O[C@H](CO)[C@@H](O[C@H]3O[C@H](CO)[C@@H](O[C@H]4O[C@H](CO)[C@@H](O[C@H]5O[C@H](CO)[C@@H](O[C@H]6O[C@H](CO)[C@@H](O)[C@H](O)[C@H]6O)[C@H](O)[C@H]5O)[C@H](O)[C@H]4O)[C@H](O)[C@H]3O)[C@H](O)[C@H]2O)[C@H](O)[C@@H](O)[C@@H]1O` [PIV, α-maltotetraosyl trehalose (or α-maltopentaosyl glucoside)] the value was 0.27.
Take `OC[C@H]1O[C@H](O[C@H]2O[C@H](CO)[C@@H](O[C@H]3O[C@H](CO)[C@@H](O[C@H]4O[C@H](CO)[C@@H](O[C@H]5O[C@H](CO)[C@@H](O)[C@H](O)[C@H]5O)[C@H](O)[C@H]4O)[C@H](O)[C@H]3O)[C@H](O)[C@H]2O)[C@H](O)[C@@H](O)[C@@H]1O` [Example A-5, maltotetraosyl glucoside]: the Hygroscopicity entry in data set [2] was “substantially no hygroscopicity”.
For `OC[C@H]1O[C@H](O[C@H]2O[C@H](CO)[C@@H](O[C@H]3O[C@H](CO)[C@@H](O)[C@H](O)[C@H]3O)[C@H](O)[C@H]2O)[C@H](O)[C@@H](O)[C@@H]1O` [PI, α-glucosyl trehalose (or α-maltosyl glucoside)], in data set [1], the “DE (dextrose equivalent), reducing power” value is on record as 0.83.
On to `OC[C@H]1O[C@H](O[C@H]2O[C@H](CO)[C@@H](O[C@H]3O[C@H](CO)[C@@H](O[C@H]4O[C@H](CO)[C@@H](O[C@H]5O[C@H](CO)[C@@H](O)[C@H](O)[C@H]5O)[C@H](O)[C@H]4O)[C@H](O)[C@H]3O)[C@H](O)[C@H]2O)[C@H](O)[C@@H](O)[C@@H]1O` [Example A-2, maltotetraosyl glucoside], for which the Hygroscopicity result in data set [2] is recorded as “substantially no hygroscopicity”.
For `OC[C@H]1O[C@H](O[C@H]2O[C@H](CO)[C@@H](O[C@H]3O[C@H](CO)[C@@H](O[C@H]4O[C@H](CO)[C@@H](O[C@H]5O[C@H](CO)[C@@H](O)[C@H](O)[C@H]5O)[C@H](O)[C@H]4O)[C@H](O)[C@H]3O)[C@H](O)[C@H]2O)[C@H](O)[C@@H](O)[C@@H]1O` [Example A-1, maltotetraosyl glucoside], the Hygroscopicity result in data set [2] is reported as “no hygroscopicity”.
One may read the LD50 as the dose expected to kill half of the subjects tested. Higher therefore signals lower toxicity. A word on the solubility: it is how much of the substance goes into solution per volume. Consider `OC[C@H]1O[C@H](O[C@H]2O[C@H](CO)[C@@H](O[C@H]3O[C@H](CO)[C@@H](O[C@H]4O[C@H](CO)[C@@H](O[C@H]5O[C@H](CO)[C@@H](O)[C@H](O)[C@H]5O)[C@H](O)[C@H]4O)[C@H](O)[C@H]3O)[C@H](O)[C@H]2O)[C@H](O)[C@@H](O)[C@@H]1O` [hydrous crystal, O-α-D-glucopyranosyl-(1→4)-O-α-D-glucopyranosyl-(1→4)-O-α-D-glucopyranosyl-(1→4)-α-D-glucopyranosyl α-D-glucopyranoside], for which the Mortality entry with mice is given as “no mouse was died”. The compound further gave an LD50 in data set [3] not below 50000 mg/kg. In “Solubility in water”, the solubility is approximately 10 mg/mL (≈ 12.1 mM).
As to `OC[C@H]1O[C@H](O[C@H]2O[C@H](CO)[C@@H](O[C@H]3O[C@H](CO)[C@@H](O[C@H]4O[C@H](CO)[C@@H](O[C@H]5O[C@H](CO)[C@@H](O)[C@H](O)[C@H]5O)[C@H](O)[C@H]4O)[C@H](O)[C@H]3O)[C@H](O)[C@H]2O)[C@H](O)[C@@H](O)[C@@H]1O` [PIII, α-maltotriosyl trehalose (or α-maltotetraosyl glucoside)], in data set [1], the “DE (dextrose equivalent), reducing power” value was 0.10.
As to `OC[C@H]1O[C@H](O[C@H]2O[C@H](CO)[C@@H](O[C@H]3O[C@H](CO)[C@@H](O[C@H]4O[C@H](CO)[C@@H](O[C@H]5O[C@H](CO)[C@@H](O[C@H]6O[C@H](CO)[C@@H](O[C@H]7O[C@H](CO)[C@@H](O)[C@H](O)[C@H]7O)[C@H](O)[C@H]6O)[C@H](O)[C@H]5O)[C@H](O)[C@H]4O)[C@H](O)[C@H]3O)[C@H](O)[C@H]2O)[C@H](O)[C@@H](O)[C@@H]1O` [PV, α-maltopentaosyl trehalose (or α-maltohexaosyl glucoside)], the “DE (dextrose equivalent), reducing power” value in data set [1] was determined as 0.23.
For `OC[C@H]1O[C@H](O[C@H]2O[C@H](CO)[C@@H](O[C@H]3O[C@H](CO)[C@@H](O[C@H]4O[C@H](CO)[C@@H](O[C@H]5O[C@H](CO)[C@@H](O)[C@H](O)[C@H]5O)[C@H](O)[C@H]4O)[C@H](O)[C@H]3O)[C@H](O)[C@H]2O)[C@H](O)[C@@H](O)[C@@H]1O` [Example A-4, maltotetraosyl glucoside], the “Water content after standing in a room” value in data set [2] (after conversion into hydrous crystal) was “about 4%”. Moreover, in data set [2], the Hygroscopicity entry was “exhibited hygroscopicity”.
For the compound `OC[C@H]1O[C@H](O[C@H]2O[C@H](CO)[C@@H](O[C@H]3O[C@H](CO)[C@@H](O[C@H]4O[C@H](CO)[C@@H](O[C@H]5O[C@H](CO)[C@@H](O)[C@H](O)[C@H]5O)[C@H](O)[C@H]4O)[C@H](O)[C@H]3O)[C@H](O)[C@H]2O)[C@H](O)[C@@H](O)[C@@H]1O` [Example A-3, maltotetraosyl glucoside], the Hygroscopicity result in data set [2] is on record as “substantially no hygroscopicity”.

These data come from patent US5922691A, “Crystalline maltotetraosyl glucoside, and its production and use” (Kabushiki Kaisha Hayashibara Seibutsu Kagaku Kenkyujo, priority 1994, dated 1999).
